This note sets out measurements from PMC9512702 (Nature Chemical Biology, 2022).

A short description of series [1]: Solubility measurement (peptide concentration in saturated solution). The note with it: sodium-phosphate buffer, pH 7.4, aqueous buffer, thermodynamic from solid.
Method: Approximately 2 mg of each peptide was added to 500 µl of buffer in 1.5-ml Eppendorf tubes. The tubes were shaken at 25 °C for 2 h on a 900 r.p.m. vortex shaker. The samples were centrifuged at 12,000 r.p.m. for 15 min to remove the precipitate and the supernatant was analyzed by ultraviolet–visible light (UV–vis) spectrometry.
Series [2] deals with SARS-CoV-2 RBD binding to immobilized ACE2 (Severe acute respiratory syndrome coronavirus 2, UniProt P0DTC2). Kind of series: biochemical.
The nature of series [3]: Cell viability (MTT) assay, Vero-E6. The class given is cell-based, monkey. Conditions: monkey; Vero-E6 cells, MTT, 20 μM (highest concentration tested), 48 h.
Method: (§1) The cell viability assay was performed by using the MTT (3-(4,5-dimethylthiazol-2-yl)-2,5-diphenyltetrazolium bromide) assay. […] The next day, 50 μl of media was removed from each well and 50 μl of the peptide was added in a dose-dependent manner. 10% DMSO (final concentration v/v) was used as a positive control for the induction of cytotoxicity. […] The plate was incubated for another 4 h in the humidified CO2 incubator, after which 100 μl of dissolving solution (10% SDS in 0.01 M HCl) was added to each well. The plate was then incubated in a CO2 incubator overnight. The next day, the plate was read for absorbance at 570 nm. The percentage viability of cells was recorded in comparison to the untreated cells.
A further series deals with SARS-CoV-2 RBD (Severe acute respiratory syndrome coronavirus 2, UniProt P0DTC2). Kind of series: biochemical. Format: binding. Conditions: KD (direct binding to RBD).
Another series has as its system Vero-E6 cells. Kind of series: Cell viability (MTT) assay, Vero-E6. The class given is cell-based, monkey. Conditions: Vero-E6 cytotoxicity vs pseudovirus IC50.

Molecules are shown by their SMILES. ≈ marks a conversion by molar mass, not a printed value. Where “and” joins values, the source holds several entries; their conditions need not be identical. Equal entries are not always repeated. Where a SMILES comes first, the peptide text is derived from it. [ ]: non-standard residue; d: D form. Cha = N[C@@H](CC1CCCCC1)C(=O)O; Aib = CC(C)(N)C(=O)O Where only a bound is given, the exact number is not on record here.

Method for Vero-E6 cells: as §1

In turn, `CC[C@H](C)[C@H](NC(=O)[C@H](CC(C)C)NC(=O)[C@H](CC(=O)O)NC(=O)[C@H](CO)NC(=O)[C@@H](NC(=O)[C@H](CCCNC(=N)N)NC(=O)[C@H](CCSC)NC(=O)[C@H](CO)NC(=O)[C@H](C)NC(=O)[C@H](CCC(=O)O)NC(=O)C(C)(C)NC(=O)[C@H](CC(=O)O)NC(=O)[C@@H](C)NC(=O)[C@H](CC(C)C)NC(=O)[C@H](CCC(=O)O)NC(=O)[C@H](CC(=O)O)NC(=O)[C@H](CC(C)C)NC(=O)[C@H](CC(C)C)NC(=O)[C@H](CCCNC(=N)N)NC(=O)[C@H](CCSC)NC(=O)[C@@H](NC(=O)[C@H](CCC(=O)O)NC(=O)[C@H](Cc1ccc(O)cc1)NC(=O)[C@@H](NC(=O)[C@H](CCCCN)NC(=O)[C@H](CCC(N)=O)NC(=O)[C@H](CC(C)C)NC(=O)[C@@H](NC(=O)[C@H](Cc1c[nH]c2ccccc12)NC(=O)[C@H](CCC(=O)O)NC(=O)[C@H](CCCCN)NC(=O)[C@@H](N)CC(=O)O)[C@@H](C)CC)[C@@H](C)CC)[C@@H](C)CC)C(C)C)C(=O)N[C@@H](Cc1ccc(O)cc1)C(=O)N[C@@H](CCC(=O)O)C(=O)N[C@@H](Cc1ccccc1)C(=O)N[C@@H](CCSC)C(=O)N[C@@H](CCCCN)C(=O)N[C@@H](CCCCN)C(N)=O` [SIH-5] (H-DKEWILQKIYEIMRLLDEL[dA]D[Aib]EASMRVSDLIYEFMKK-NH2) gave a thermodynamic solubility at 2 h in series [1] of over 700 µM. In series [2], this compound came in with a concentration for half-maximal inhibition (IC50) of 125 to 250 nM. This compound registered a viability at 48 h, 20 µM in series [3] of over 75%. The equilibrium dissociation constant (Kd) at SARS-CoV-2 RBD (re-analyzed) was ~0.9 nM and 0.9 nM.
For the compound `CC[C@H](C)[C@H](NC(=O)[C@H](CC(C)C)NC(=O)[C@H](CC(=O)O)NC(=O)[C@H](CO)NC(=O)[C@@H](NC(=O)[C@H](CCCNC(=N)N)NC(=O)[C@H](CCSC)NC(=O)[C@H](CO)NC(=O)[C@H](C)NC(=O)[C@H](CCC(=O)O)NC(=O)C(C)(C)NC(=O)[C@H](CC(=O)O)NC(=O)[C@@H](C)NC(=O)[C@H](CC(C)C)NC(=O)[C@H](CCC(=O)O)NC(=O)[C@H](CC(=O)O)NC(=O)[C@H](CC(C)C)NC(=O)[C@H](CC(C)C)NC(=O)[C@H](CCCNC(=N)N)NC(=O)[C@H](CCSC)NC(=O)[C@@H](NC(=O)[C@H](CCC(=O)O)NC(=O)[C@H](Cc1ccc(O)cc1)NC(=O)[C@@H](NC(=O)[C@H](CCCCN)NC(=O)[C@H](CCC(N)=O)NC(=O)[C@H](CC(C)C)NC(=O)[C@@H](NC(=O)[C@H](Cc1c[nH]c2ccccc12)NC(=O)[C@H](CCC(=O)O)NC(=O)[C@H](CCCCN)NC(=O)[C@@H](N)CC(=O)O)[C@@H](C)CC)[C@@H](C)CC)[C@@H](C)CC)C(C)C)C(=O)N[C@@H](Cc1ccc(O)cc1)C(=O)N[C@@H](CCC(=O)O)C(=O)N[C@@H](CC1CCCCC1)C(=O)N[C@@H](CCSC)C(=O)N[C@@H](CCCCN)C(=O)N[C@@H](CCCCN)C(N)=O` [SIH-11] (H-DKEWILQKIYEIMRLLDEL[dA]D[Aib]EASMRVSDLIYE[Cha]MKK-NH2), the concentration for half-maximal inhibition (IC50) in series [2] lay within 125 to 250 nM. For the same compound, in the series on Vero-E6 cells, the “Selectivity index (50% cytotoxic concentration divided by IC50)” value is on record as > 50,000. In addition, the viability at 48 h, 20 µM in series [3] is over 75%. Moreover, the Kd on SARS-CoV-2 RBD amounted to 1.3 nM.
In turn, `CC[C@H](C)[C@H](NC(=O)[C@H](CC(C)C)NC(=O)[C@H](CC(=O)O)NC(=O)[C@H](CO)NC(=O)[C@@H](NC(=O)[C@H](CCCNC(=N)N)NC(=O)[C@H](CCSC)NC(=O)[C@H](CO)NC(=O)[C@H](C)NC(=O)[C@H](CCC(=O)O)NC(=O)C(C)(C)NC(=O)[C@H](Cc1c[nH]cn1)NC(=O)CNC(=O)[C@H](CC(C)C)NC(=O)[C@H](CCC(=O)O)NC(=O)[C@H](CC(=O)O)NC(=O)[C@H](CC(C)C)NC(=O)[C@H](CC(C)C)NC(=O)[C@H](CCCNC(=N)N)NC(=O)[C@H](CCSC)NC(=O)[C@@H](NC(=O)[C@H](CCC(=O)O)NC(=O)[C@H](Cc1ccc(O)cc1)NC(=O)[C@@H](NC(=O)[C@H](CCCCN)NC(=O)[C@H](CCC(N)=O)NC(=O)[C@H](CC(C)C)NC(=O)[C@@H](NC(=O)[C@H](Cc1c[nH]c2ccccc12)NC(=O)[C@H](CCC(=O)O)NC(=O)[C@H](CCCCN)NC(=O)[C@@H](N)CC(=O)O)[C@@H](C)CC)[C@@H](C)CC)[C@@H](C)CC)C(C)C)C(=O)N[C@@H](Cc1ccc(O)cc1)C(=O)N[C@@H](CCC(=O)O)C(=O)N[C@@H](Cc1ccccc1)C(=O)N[C@@H](CCSC)C(=O)N[C@@H](CCCCN)C(=O)N[C@@H](CCCCN)C(N)=O` [SIH-2] (H-DKEWILQKIYEIMRLLDELGH[Aib]EASMRVSDLIYEFMKK-NH2) returned a thermodynamic solubility at 2 h in series [1] of 32 µM (≈ 149 µg/mL). In series [2], this compound came in with a concentration for half-maximal inhibition (IC50) of 1250 to 2500 nM.
